Laboratory results: ChEMBL document CHEMBL1201862, “PubChem BioAssay data set” (2004)
Active and inactive are the calls of the source.

What was measured:
Cytochrome P450 2C19 = Cytochrome P450 2C19 (Homo sapiens, UniProt P33261); test: Cytochrome panel assay with activity outcomes. Panel member name: p450-cyp2c19 Compounds with AC50 equal or less than 10 uM are considered active; type: functional
[1] = Trypanosoma cruzi growth suppression in host cells – NIH3T3 host cells, beta-gal luminescence, confirmation (AID 2044); type: functional, cell-based;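 note: intracellular parasites grown in NIH/3T3 mouse fibroblasts as host cells; luminescent beta-galactosidase reporter signal from transgenic T. cruzi replicating inside host cells; inhibitors lower the luminescence signal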
[2] = NIH3T3 cell viability loss – ATP luminescence, mouse fibroblasts, counter-screen, dose response (AID 2010); type: functional, cell-based; conditions: NIH3T3;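 note: cells exposed to compound for about 90 hours before reading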
Streptococcus = test: GAS UMAA2166 growth inhibition – luminescence, BacTiterGlo, counter-screen for streptokinase expression inhibitor project, dose response (AID 1915); type: functional, organism-based;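 note: potency for reduction of bacterial viability or growth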
[3] = test system: Streptococcus sp. 'group A'; test: Streptococcus pyogenes SK(-)GAS viability under kanamycin – luminescence, BacTiterGlo, confirmation, counter-screen for streptokinase expression inhibitor project, dose response (AID 1900); type: functional, organism-based

Sequence of Cytochrome P450 2C19 (P33261 whole entry): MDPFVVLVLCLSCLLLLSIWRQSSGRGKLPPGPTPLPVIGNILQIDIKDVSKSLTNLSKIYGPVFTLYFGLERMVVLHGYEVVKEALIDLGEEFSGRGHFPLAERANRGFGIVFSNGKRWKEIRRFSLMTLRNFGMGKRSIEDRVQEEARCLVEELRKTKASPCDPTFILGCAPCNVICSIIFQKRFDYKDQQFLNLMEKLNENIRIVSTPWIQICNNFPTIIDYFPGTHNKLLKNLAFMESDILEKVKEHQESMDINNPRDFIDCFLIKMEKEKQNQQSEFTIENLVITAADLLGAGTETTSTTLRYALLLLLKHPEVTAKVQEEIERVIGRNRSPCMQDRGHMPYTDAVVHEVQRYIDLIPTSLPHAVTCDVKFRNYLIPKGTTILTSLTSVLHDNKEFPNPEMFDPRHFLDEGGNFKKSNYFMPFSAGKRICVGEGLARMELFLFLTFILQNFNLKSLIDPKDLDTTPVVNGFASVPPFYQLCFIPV

Row | Structure (SMILES) | AC50 (Cytochrome P450 2C19; read-out: AC50) | EC50 [1] | EC50 [2] | also measured
1 | O=C(O)CC[C@@H](NC(=O)c1ccccc1C(=O)O)C(=O)O | 0.0251 µM (inconclusive) | – | – | –
2 | CCC1CCCCN1c1nc(-c2ccncc2)nc2ccccc12 (stereo unspecified) | – | 0.521 µM (active) | 6.4 µM (active) | –
3 | COc1ccc(Nc2nnc(-c3ccc(O)cc3)c3ccccc23)cc1 | – | 3.48 µM (active) | > 60 µM (not active) | –
4 | CCN1CCCc2cc(CN(CCN3CCOCC3)C(S)=Nc3ccc(OC)c(Cl)c3)ccc21 | – | 1.63 µM (active) | > 60 µM (not active) | –
5 | COc1ccc(C(CNC(=O)c2oc3ccc(Br)cc3c2C)N2CCCCC2)cc1 (stereo unspecified) | – | 2.37 µM (active) | > 60 µM (not active) | –
6 | CCCCNC(=O)NS(=O)(=O)c1ccc(C(=O)OC(C)C)o1 | 39.8 µM (inconclusive) | – | – | –
7 | Clc1ccc(-c2[nH]nc3c2CCC3)c(Cl)c1 | – | – | – | EC50 (Streptococcus): > 150 µM (not active); EC50 [3]: 16.8 µM (active)
8 | Cc1c(C)c(C)c2[nH]c(-c3ccc4c(c3)OCO4)nc2c1C | – | 1.45 µM (active) | > 30 µM (not active) | –
9 | COc1ccc(C(=O)N2CCC3(CCCN(c4ccccn4)C3)CC2)cc1 | 25.1 µM (inconclusive) | – | – | –
10 | Cc1ccccc1C(=O)Nc1ccc(C(=O)NNC(=O)CCCOc2ccc(Cl)cc2Cl)cc1 | 17.8 µM (inconclusive) | – | – | –
11 | COC(=O)C1(C)C=C2C(=C(c3ccccc3)C(=O)C2C)CN1 (stereo unspecified) | 39.8 µM (inconclusive) | – | – | –
12 | CCCc1nnc(SCC(=O)N2CCCCC2)n1CC1CCCO1 (stereo unspecified) | 17.8 µM (inconclusive) | – | – | –
13 | CC(C)c1csc(CN2CCC(CO)(Cc3cccc(F)c3)CC2)n1 | – | 1.09 µM (active) | > 60 µM (not active) | –
14 | CCN(CC)c1nc(-c2ccccc2)ncc1S(=O)(=O)c1ccc(C)cc1 | – | 2.65 µM (active) | > 60 µM (not active) | –
15 | NC(=O)c1csc(-c2ccc(CO)o2)n1 | – | – | – | AC50 (Cytochrome P450 2C19): inconclusive
16 | C=CC[n+]1c(-c2ccc(C)cc2)csc1Nc1c(C)n(C)n(-c2ccccc2)c1=O | – | 4.99 µM (active) | > 60 µM (not active) | –
17 | CN(c1ccccc1)S(=O)(=O)c1ccc(C(=O)Nc2ccncc2)cc1 | – | 1.18 µM (active) | > 60 µM (not active) | –
18 | Cc1cc(Cl)ccc1N=C(S)NCCC(c1ccccc1)c1ccccc1 | – | – | – | EC50 (Streptococcus): 30.3 µM (active); EC50 [3]: 5.18 µM (active)
19 | CCC(c1nnnn1C(C)(C)C)N(Cc1cccs1)Cc1cc2cc(C)c(C)cc2n2nnnc12 (stereo unspecified) | – | 1.02 µM (active) | > 60 µM (not active) | –
20 | CC(=O)Nc1c(C)nn(-c2ccc(C)c(C)c2)c1C | 39.8 µM (inconclusive) | – | – | –
21 | O=C(c1ccco1)N1CCN(C(=O)c2nn3cccnc3c2Cl)CC1 | – | – | – | AC50 (Cytochrome P450 2C19): inconclusive
22 | CC1(C)CC(O)CC(C)(C)N1CC(O)COCCOc1ccc(Br)cc1 (stereo unspecified) | – | – | – | AC50 (Cytochrome P450 2C19): inconclusive
23 | CCNC(=S)N/N=C/c1cccc(OCc2c(F)cccc2Cl)c1 | – | 1.15 µM (active) | > 30 µM (not active) | –
